Measurements taken from patent US9963474B2, “Mitochondria-targeted dicarbonyl sequestering compounds” (MEDICAL RESEARCH COUNCIL, priority 2013, dated 2018).

How the values were obtained:
[1] = Partition coefficients between PBS and octan-1-ol; format: physicochemical; conditions: means ± SE of 3 determinations
Method: (§1) RP-HPLC was performed using a Gilson 321 pump with a C18 column (Jupiter 300 Å, Phenomenex) with a Widepore C18 guard column (Phenomenex). Samples (1 ml) were injected through a 0.22 μm PVDF filter (Millex, Millipore). HPLC buffer A [0.1% TFA in water] and HPLC buffer B (90% acetonitrile and 0.1% TFA) were used and a gradient was run at 1 ml/min at room temperature as follows: 0-2 min—5% B; 2-17 min—5-100% B; 17-19 min—100% B; 19-22 min—100-5% B. Peaks were detected by absorbance at 220 nm (UV/Vis 151, Gilson) and by fluorescence (excitation and emission wavelengths of 344 and 433 nm; RF-10AXL, Shimadzu). Partition coefficients between PBS and octan-1-ol were determined as previously described.

[2] = Stability of compounds assessed by RP-HPLC; format: physicochemical; conditions: 37° C., one week, RP-HPLC
Method: as §1
The syntheses of MitoG, its predicted quinoxaline products upon reaction with methylglyoxal and glyoxal, and their deuterated versions are summarized in FIG. 2. As expected, the spectrum of MitoG was a summation of those of the phenylenediamine, hexyloxyphenylenediamine (HP), and a simple alkylTPP salt.
The expected products of the reaction of MitoG with methylglyoxal (MQE) and glyoxal (QE) were synthesized and have UV/Vis absorption spectra distinct from that of MitoG (FIG. 3B). Both QE and MQE were fluorescent, while MitoG was not (FIG. 3C). The three compounds were resolved by RP-HPLC (FIG. 3D) although the MQE regioisomers (MQE1, MQE2; FIG. 1B) were not distinguished. Both MQE and QE were stable after one week at 37° C. as assessed by RP-HPLC (data not shown). It was concluded that MitoG is sufficiently stable for biological experiments involving trapping of glyoxal and methylglyoxal within mitochondria in cells and in vivo, and the reaction products MQE and QE were both robustly stable for chemical isolation and subsequent LC-MS/MS analyses.

[3] = 25° C., literature [49]; cited from earlier work

Row | Compound | Partition coefficient [1] | stability after one week [2] | logD ([1]; octan-1-ol/PBS, read-out: Partition coefficient (converted)) | rate constant for reaction with methylglyoxal, reported value [3] [M⁻¹ s⁻¹]
1 | Cc1cnc2cc(OCCCCCC[P+](c3ccccc3)(c3ccccc3)c3ccccc3)ccc2n1.O=C([O-])C(F)(F)F [MQE, (6-(6-(2-Methyl-quinoxalinyloxy))hexyl)triphenylphosphonium trifluoroacetate] | 12.3 ± 0.5 | stable |  | 
2 | O=C([O-])C(F)(F)F.c1ccc([P+](CCCCCCOc2ccc3nccnc3c2)(c2ccccc2)c2ccccc2)cc1 [QE, (6-(6-Quinoxalinyloxy)hexyl)triphenylphosphonium trifluoroacetate] |  | stable | 1.13 | 
3 | Nc1ccccc1N [o-phenylenediamine] |  |  |  | 1.7 ± 0.3
